Reference: ChEMBL document CHEMBL4342403, “New evolutions in the BACE1 inhibitor field from 2014 to 2018” (Bioorg Med Chem Lett, 2019)

Legend:
Beta-secretase 2 [1] = molecular target: T1, Beta-secretase 2 (Homo sapiens, UniProt Q9Y5Z0); test: Inhibition of BACE2 (unknown origin)
T1 sequence (Q9Y5Z0 whole entry): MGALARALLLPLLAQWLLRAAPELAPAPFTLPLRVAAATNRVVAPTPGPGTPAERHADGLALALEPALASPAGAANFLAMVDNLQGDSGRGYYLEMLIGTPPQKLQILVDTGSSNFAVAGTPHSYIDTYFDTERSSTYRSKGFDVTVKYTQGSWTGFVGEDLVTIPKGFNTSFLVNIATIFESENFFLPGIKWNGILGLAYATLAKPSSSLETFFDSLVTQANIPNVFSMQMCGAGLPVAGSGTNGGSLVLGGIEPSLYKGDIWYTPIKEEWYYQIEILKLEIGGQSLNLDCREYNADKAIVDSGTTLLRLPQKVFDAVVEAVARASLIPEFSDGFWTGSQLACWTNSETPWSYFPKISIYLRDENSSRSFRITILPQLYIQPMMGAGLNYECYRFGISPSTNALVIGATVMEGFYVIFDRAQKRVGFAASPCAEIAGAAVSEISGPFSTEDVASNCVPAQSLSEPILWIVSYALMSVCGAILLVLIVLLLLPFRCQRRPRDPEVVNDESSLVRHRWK

Canis familiaris [2] = test: In vivo inhibition of BACE1 in dog assessed as reduction in amyloidbeta level in CSF at 1 mg/kg, po measured at 24 hrs post dose relative to control; type: functional; conditions: Canis lupus familiaris
Beta-secretase 1 [3] = molecular target: T2, Beta-secretase 1 (Homo sapiens, UniProt P56817); test: Inhibition of BACE1 (unknown origin)
T2 sequence (P56817 whole entry): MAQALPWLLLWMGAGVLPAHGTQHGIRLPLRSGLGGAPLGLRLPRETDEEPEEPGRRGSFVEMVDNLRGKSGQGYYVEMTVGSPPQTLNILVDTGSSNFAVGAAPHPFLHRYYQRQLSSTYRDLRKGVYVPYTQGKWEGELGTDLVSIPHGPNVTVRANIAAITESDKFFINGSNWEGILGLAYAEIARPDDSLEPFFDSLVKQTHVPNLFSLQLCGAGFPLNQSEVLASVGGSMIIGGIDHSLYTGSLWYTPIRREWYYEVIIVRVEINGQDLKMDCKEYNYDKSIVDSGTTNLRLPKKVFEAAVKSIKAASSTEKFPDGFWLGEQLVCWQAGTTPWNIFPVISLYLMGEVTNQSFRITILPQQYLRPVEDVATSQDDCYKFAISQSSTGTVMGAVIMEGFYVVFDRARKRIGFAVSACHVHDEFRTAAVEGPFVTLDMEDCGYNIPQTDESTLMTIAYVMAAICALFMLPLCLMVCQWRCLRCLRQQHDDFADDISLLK

Beta-secretase 1 [4] = molecular target: T2, Beta-secretase 1; test: Inhibition of BACE1 (unknown origin) by cell-based assay
Canis familiaris [5] = test: In vivo inhibition of BACE1 in dog assessed as reduction in amyloidbeta level in CSF at 1 mg/kg, po measured at 48 hrs post dose relative to control; type: functional; conditions: Canis lupus familiaris
Rattus norvegicus [6] = test: In vivo inhibition of BACE1 in CD-IGS rat assessed as reduction in amyloidbeta 40 level in CSF at 10 mg/kg, po measured at 3 hrs post dose by sandwich ELISA relative to control; type: functional
Beta-secretase 2 [7] = molecular target: T1, Beta-secretase 2; test: Inhibition of human BACE2 preincubated for 30 mins followed by QSY7- EISEVNLDAEFC-Eu-amide substrate addition and measured after […] by HTRF assay
Beta-secretase 1 [8] = molecular target: T2, Beta-secretase 1; test: Inhibition of human BACE1 catalytic domain preincubated for 30 mins followed by QSY7-EISEVNLDAEFC-Europium-amide substrate addition and measured after […] by HTRF assay
Beta-secretase 1 [9] = molecular target: Beta-secretase 1 (Cricetulus griseus, UniProt G3IAK4); test: Inhibition of BACE1 in CHO cells expressing human APP assessed as reduction in amyloidbeta (1 to 40 residues) level incubated for 24 hrs by immunoassay method; type: cell-based
Sequence of Beta-secretase 1 (Cricetulus griseus, UniProt G3IAK4) (G3IAK4 whole entry, the tested form may be a part): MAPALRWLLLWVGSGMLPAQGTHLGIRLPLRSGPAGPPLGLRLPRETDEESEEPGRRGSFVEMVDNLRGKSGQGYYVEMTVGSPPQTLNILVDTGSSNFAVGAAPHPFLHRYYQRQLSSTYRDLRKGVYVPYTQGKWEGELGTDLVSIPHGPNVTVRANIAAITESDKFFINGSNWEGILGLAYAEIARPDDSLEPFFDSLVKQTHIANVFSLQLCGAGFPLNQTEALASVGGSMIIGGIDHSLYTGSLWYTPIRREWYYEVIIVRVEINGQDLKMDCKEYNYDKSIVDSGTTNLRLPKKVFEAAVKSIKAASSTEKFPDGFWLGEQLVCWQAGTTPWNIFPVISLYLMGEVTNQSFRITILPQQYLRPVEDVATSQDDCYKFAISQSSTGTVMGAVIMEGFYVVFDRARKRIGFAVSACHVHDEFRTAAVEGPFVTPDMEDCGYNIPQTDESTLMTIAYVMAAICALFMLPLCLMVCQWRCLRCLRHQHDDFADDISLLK

Homo sapiens [10] = test: In vivo inhibition of BACE1 in human assessed as reduction in amyloidbeta40 level in CSF at 150 mg administered once daily for 14 days relative to baseline; type: functional
Homo sapiens [11] = test: In vivo inhibition of BACE1 in human assessed as reduction in amyloidbeta40 level in CSF at 50 mg administered once daily for 14 days relative to baseline; type: functional
Homo sapiens [12] = test: In vivo inhibition of BACE1 in human assessed as reduction in amyloidbeta40 level in CSF at 15 mg administered once daily for 14 days relative to baseline; type: functional
[13] = Dissociation constant, pKa of the compound; type: physicochemical
Beta-secretase 1 [14] = molecular target: T2, Beta-secretase 1; test: Inhibition of BACE1 (unknown origin) expressed in CHO-K1 cells using Biotin-GLTNIKTEEISEISYAEVEFR-C[Oregon Green]KK-OH as substrate incubated for 3 hrs by fluorescence polarization
P-glycoprotein (ABCB1) [15] = molecular target: T3, P-glycoprotein (ABCB1) (Homo sapiens, UniProt P08183); test: Substrate activity at P-glycoprotein (unknown origin) in MDCK-MDR1 cells assessed as efflux ratio; type: ADME, cell-based
T3 sequence (P08183 whole entry): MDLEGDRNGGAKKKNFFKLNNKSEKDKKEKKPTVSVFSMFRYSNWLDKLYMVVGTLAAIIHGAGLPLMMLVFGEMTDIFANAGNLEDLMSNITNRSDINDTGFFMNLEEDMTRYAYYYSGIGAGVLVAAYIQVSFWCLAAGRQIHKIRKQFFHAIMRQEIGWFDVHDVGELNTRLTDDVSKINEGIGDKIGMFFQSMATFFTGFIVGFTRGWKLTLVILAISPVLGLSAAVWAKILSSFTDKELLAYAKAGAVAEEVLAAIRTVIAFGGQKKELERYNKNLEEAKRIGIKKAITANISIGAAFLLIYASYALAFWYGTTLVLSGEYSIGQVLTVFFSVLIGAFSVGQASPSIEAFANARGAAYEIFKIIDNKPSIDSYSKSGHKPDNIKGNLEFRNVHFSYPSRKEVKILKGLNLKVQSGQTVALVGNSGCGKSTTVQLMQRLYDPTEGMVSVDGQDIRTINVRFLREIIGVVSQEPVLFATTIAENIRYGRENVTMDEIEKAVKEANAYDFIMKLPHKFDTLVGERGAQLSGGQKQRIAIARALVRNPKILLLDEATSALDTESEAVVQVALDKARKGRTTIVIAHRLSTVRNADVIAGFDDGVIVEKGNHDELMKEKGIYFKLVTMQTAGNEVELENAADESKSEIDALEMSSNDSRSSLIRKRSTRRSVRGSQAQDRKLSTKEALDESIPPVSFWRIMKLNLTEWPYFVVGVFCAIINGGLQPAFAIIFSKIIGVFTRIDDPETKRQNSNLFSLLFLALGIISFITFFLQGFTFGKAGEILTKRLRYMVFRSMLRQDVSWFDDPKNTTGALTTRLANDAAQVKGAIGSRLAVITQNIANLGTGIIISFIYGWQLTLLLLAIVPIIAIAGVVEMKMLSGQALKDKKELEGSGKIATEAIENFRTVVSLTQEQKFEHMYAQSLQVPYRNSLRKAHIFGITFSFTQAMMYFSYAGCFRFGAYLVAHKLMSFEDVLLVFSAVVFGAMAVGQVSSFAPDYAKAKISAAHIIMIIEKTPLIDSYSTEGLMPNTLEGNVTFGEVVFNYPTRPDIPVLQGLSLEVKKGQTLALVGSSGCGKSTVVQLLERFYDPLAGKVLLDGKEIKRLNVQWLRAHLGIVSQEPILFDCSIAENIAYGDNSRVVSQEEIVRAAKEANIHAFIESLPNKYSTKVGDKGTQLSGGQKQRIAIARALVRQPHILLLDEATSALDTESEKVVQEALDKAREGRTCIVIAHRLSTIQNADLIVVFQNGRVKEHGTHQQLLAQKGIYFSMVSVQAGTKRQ

Beta-secretase 1 [16] = molecular target: T2, Beta-secretase 1; test: Inhibition of BACE1 in human H4 cells transfected with APP695 assessed as […] incubated for 18 hrs by ELISA; type: cell-based
[17] = molecular target: Voltage-gated inwardly rectifying potassium channel KCNH2 (Homo sapiens, UniProt Q12809); test: Inhibition of human ERG expressed in CHO cells at holding potential of -80 mV by patch clamp method; type: cell-based
Sequence of Voltage-gated inwardly rectifying potassium channel KCNH2 (Q12809 whole entry): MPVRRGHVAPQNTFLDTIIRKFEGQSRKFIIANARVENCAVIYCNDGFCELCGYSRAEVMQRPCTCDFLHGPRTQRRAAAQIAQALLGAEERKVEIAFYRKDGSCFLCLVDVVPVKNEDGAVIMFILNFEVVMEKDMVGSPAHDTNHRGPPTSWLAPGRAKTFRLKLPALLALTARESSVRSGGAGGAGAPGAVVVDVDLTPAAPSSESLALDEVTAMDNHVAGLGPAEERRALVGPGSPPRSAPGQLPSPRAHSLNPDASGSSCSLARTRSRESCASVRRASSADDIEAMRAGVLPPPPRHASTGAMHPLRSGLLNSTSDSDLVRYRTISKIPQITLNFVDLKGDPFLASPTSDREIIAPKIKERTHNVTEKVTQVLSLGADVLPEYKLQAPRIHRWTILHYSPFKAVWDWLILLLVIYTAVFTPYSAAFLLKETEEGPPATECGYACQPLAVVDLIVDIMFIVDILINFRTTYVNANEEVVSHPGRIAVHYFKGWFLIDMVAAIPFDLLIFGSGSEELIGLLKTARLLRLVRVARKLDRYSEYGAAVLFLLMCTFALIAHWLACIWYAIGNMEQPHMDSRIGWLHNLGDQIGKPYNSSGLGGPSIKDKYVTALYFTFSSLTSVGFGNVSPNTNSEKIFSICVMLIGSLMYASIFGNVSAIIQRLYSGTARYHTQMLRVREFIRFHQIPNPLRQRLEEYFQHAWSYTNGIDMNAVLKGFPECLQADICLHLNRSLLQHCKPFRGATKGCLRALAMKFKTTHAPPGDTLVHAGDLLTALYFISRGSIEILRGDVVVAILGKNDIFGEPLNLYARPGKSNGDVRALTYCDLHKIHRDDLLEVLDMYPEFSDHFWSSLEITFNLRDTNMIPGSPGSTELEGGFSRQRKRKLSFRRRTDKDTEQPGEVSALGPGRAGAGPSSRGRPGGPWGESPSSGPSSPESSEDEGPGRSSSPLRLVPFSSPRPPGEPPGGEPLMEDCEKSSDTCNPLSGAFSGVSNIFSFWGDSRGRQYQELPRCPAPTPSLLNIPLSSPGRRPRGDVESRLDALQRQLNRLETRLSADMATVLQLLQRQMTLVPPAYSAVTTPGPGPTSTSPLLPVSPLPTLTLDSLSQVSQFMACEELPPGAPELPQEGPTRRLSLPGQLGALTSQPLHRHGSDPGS

[18] = Brain to plasma partition coefficient, Kp of the compound in Sprague Dawley rat at 30 mg/kg, po; type: ADME, organism-based
Rattus norvegicus [19] = test: In vivo inhibition of BACE1 in Sprague Dawley rat assessed as reduction in amyloidbeta 40 level in brain at 10 mg/kg, po measured at 3 hrs post dose by ELISA relative to control; type: functional
Rattus norvegicus [20] = test: In vivo inhibition of BACE1 in Sprague Dawley rat assessed as reduction in amyloidbeta 40 level in brain at 30 mg/kg, po measured at 3 hrs post dose by ELISA relative to control; type: functional
[21] = Brain to plasma partition coefficient, Kp of the compound in Sprague Dawley rat at 10 mg/kg, po; type: ADME, organism-based
[22] = Drug uptake in Sprague Dawley rat brain at 3 mg/kg, po by UPLC-MS/MS analysis; type: ADME, organism-based; conditions: in vivo
Rattus norvegicus [23] = test: In vivo inhibition of BACE1 in Sprague Dawley rat assessed as reduction in amyloidbeta 40 level in brain at 3 mg/kg, po by ELISA relative to control; type: functional
P-glycoprotein (ABCB1) [24] = molecular target: T3, P-glycoprotein (ABCB1); test: Substrate activity at P-glycoprotein (unknown origin) in MDCK-MDR1cells assessed as efflux ratio incubated over 60 mins by LC-MS/MS analysis; conditions: MDCK-MDR1
Beta-secretase 1 [25] = molecular target: T2, Beta-secretase 1; test: Inhibition of human BACE1 using biotin-XSEVNLDAEFRHDSGC-Eu as substrate incubated for 3 hrs by fluorescence method
Rattus norvegicus [26] = test: In vivo inhibition of BACE1 in Sprague Dawley rat assessed as reduction in amyloidbeta 40 level in brain at 10 mg/kg, po measured at 4 hrs post dose by sandwich ELISA relative to control; type: functional
Beta-secretase 1 [27] = molecular target: T2, Beta-secretase 1; test: Inhibition of BACE1 (unknown origin) assessed as reduction in amyloidbeta 40 level after 24 hrs by cell-based sandwich ELISA
Rattus norvegicus [28] = test: In vivo inhibition of BACE1 in Sprague Dawley rat assessed as reduction in amyloidbeta 40 level in CSF at 10 mg/kg, po measured at 4 hrs post dose by sandwich ELISA relative to control; type: functional
Beta-secretase 1 [29] = molecular target: T2, Beta-secretase 1; test: Inhibition of BACE1 (unknown origin) preincubated for 1 hr followed by substrate addition and measured after 1 hr by FRET assay
Cathepsin D = Cathepsin D (Homo sapiens, UniProt P07339); test: Inhibition of recombinant Cathepsin D (unknown origin) expressed in CHO cells preincubated for 1 hr followed by substrate addition and measured after 1 hr by FRET assay; type: cell-based
Sequence of Cathepsin D (P07339 65-162 limits assumed): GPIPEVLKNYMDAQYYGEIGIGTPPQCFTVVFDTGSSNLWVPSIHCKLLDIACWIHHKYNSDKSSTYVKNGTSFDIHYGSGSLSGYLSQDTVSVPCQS
Sequence of Cathepsin D (P07339 169-412 limits assumed): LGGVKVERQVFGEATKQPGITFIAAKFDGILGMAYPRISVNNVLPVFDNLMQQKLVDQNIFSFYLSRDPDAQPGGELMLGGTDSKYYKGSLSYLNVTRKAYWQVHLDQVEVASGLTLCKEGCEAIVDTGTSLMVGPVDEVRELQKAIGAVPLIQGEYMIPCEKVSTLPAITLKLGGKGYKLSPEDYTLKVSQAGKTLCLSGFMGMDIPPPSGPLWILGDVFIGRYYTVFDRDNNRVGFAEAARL

Homo sapiens [30] = test: In vivo inhibition of BACE1 in human assessed as reduction in amyloidbeta40 level in CSF at 100 mg relative to control; type: functional
Homo sapiens [31] = test: In vivo inhibition of BACE1 in human assessed as reduction in amyloidbeta40 level in CSF at 25 mg relative to control; type: functional
Homo sapiens [32] = test: In vivo inhibition of BACE1 in human assessed as reduction in amyloidbeta40 level in CSF at 50 mg relative to control; type: functional
Homo sapiens [33] = test: In vivo inhibition of BACE1 in human assessed as reduction in amyloidbeta40 level in CSF at 200 mg relative to control; type: functional
Homo sapiens [34] = test: In vivo inhibition of BACE1 in human assessed as reduction in amyloidbeta40 level in CSF at 90 mg administered once daily after 14 days relative to baseline; type: functional
Homo sapiens [35] = test: In vivo inhibition of BACE1 in human assessed as reduction in amyloidbeta40 level in CSF at 30 mg administered once daily after 14 days relative to baseline; type: functional
Homo sapiens [36] = test: In vivo inhibition of BACE1 in human assessed as reduction in amyloidbeta40 level in CSF at 50 mg administered once daily after 14 days relative to baseline; type: functional
Mus musculus = test: In vivo inhibition of BACE1 in C57B1/6J mouse assessed as reduction in amyloidbeta 40 level in brain at 30 mg/kg, po measured at 4 hrs post dose by AlphaLISA relative to control; type: functional
Homo sapiens [37] = test: In vivo inhibition of BACE1 in human assessed as reduction in amyloidbeta40 level in CSF at 12 mg administered once daily for 7 days relative to baseline; type: functional
Homo sapiens [38] = test: In vivo inhibition of BACE1 in human assessed as reduction in amyloidbeta40 level in CSF at 60 mg administered once daily for 7 days relative to baseline; type: functional
Homo sapiens [39] = test: In vivo inhibition of BACE1 in human assessed as reduction in amyloidbeta40 level in CSF at 40 mg administered once daily for 7 days relative to baseline; type: functional

NC1=N[C@@]2(c3cc(NC(=O)c4ccc(C(F)(F)F)cn4)ccc3F)CO[C@H](C(F)(F)F)[C@H]2CO1
IC50 (Beta-secretase 2 [1]): 0.602 µM
inhibition in vivo at 1 mg/kg (Canis familiaris [2]): 65%
IC50 (Beta-secretase 1 [3]): 0.0119 µM
IC50 (Beta-secretase 1 [4]): 0.00103 µM
inhibition in vivo at 1 mg/kg (Canis familiaris [5]): 55%

COc1cnc2c(Nc3ccc(F)c([C@]4(C)CS(=O)(=O)N(C)C(N)=N4)c3)nccc2c1
inhibition in vivo at 10 mg/kg (Rattus norvegicus [6]): 68%
Ki (Beta-secretase 2 [7]): 0.0035 µM
Ki (Beta-secretase 1 [8]): 0.0026 µM

C[C@]1(c2nc(NC(=O)c3ncc(C#N)cc3Cl)ccc2F)N=C(N)OCC1(F)F
IC50 (Beta-secretase 1 [9]): 0.008 µM

CC#Cc1cncc(-c2ccc3c(c2)[C@]2(N=C(C)C(N)=N2)[C@]2(CC[C@@H](OC)CC2)C3)c1
inhibition (INH) (Homo sapiens [10]): 90%
inhibition (INH) (Homo sapiens [11]): 76%
inhibition (INH) (Homo sapiens [12]): 52%

C[C@H]1C[C@H]2CSC(N)=N[C@@]2(c2ncc(NC(=O)c3ccc(OC(F)F)cn3)s2)CO1
pKa [13]: 7
IC50 (Beta-secretase 1 [14]): > 100 µM
efflux ratio (P-glycoprotein (ABCB1) [15]): 7
IC50 (Beta-secretase 1 [16]): 13.6 µM
IC50 [17]: 12 µM

Cc1cc(C#N)cnc1C(=O)Nc1ccc(F)c([C@@]2(C)N=C(N)[C@@](C)(F)CC2(F)F)c1
Kp [18]: 0.5
inhibition in vivo at 10 mg/kg (Rattus norvegicus [19]): 66%
inhibition in vivo at 30 mg/kg (Rattus norvegicus [20]): 61%
Kp [21]: 0.5

[2H]C([2H])([2H])Oc1cnc(C(=O)Nc2ccc(F)c([C@@]3(C)N=C(N)[C@@](C)(F)C[C@@H]3F)c2)cn1
Drug uptake [22]: 610 ng/g
inhibition in vivo at 3 mg/kg (Rattus norvegicus [23]): 52%
efflux ratio at 1 h (P-glycoprotein (ABCB1) [24]): 0.85

CC#CC(=O)Nc1ccc(F)c(C2(C)Cc3c(F)cncc3C(N)=N2)c1 (configuration not stated)
IC50 (Beta-secretase 1 [25]): 0.054 µM

Cc1cc(Cl)cnc1C(=O)Nc1ccc(F)c([C@@]2(C)N=C(N)[C@]3(C)CC[C@H]2S3(=O)=O)c1
inhibition in vivo at 10 mg/kg (Rattus norvegicus [26]): 66%
IC50 (Beta-secretase 1 [27]): 0.002 µM
inhibition in vivo at 10 mg/kg (Rattus norvegicus [28]): 76%
IC50 (Beta-secretase 1 [29]): 0.002 µM
IC50 (Cathepsin D): 1740 µM

C[C@H]1OC[C@]2(c3cc(NC(=O)c4cnc(C(F)F)cn4)ccc3F)N=C(N)SC[C@H]12 [ELENBECESTAT]
IC50 (Beta-secretase 1 [4]): 0.007 µM
inhibition (INH) (Homo sapiens [30]): 83%
inhibition (INH) (Homo sapiens [31]): 56%
inhibition (INH) (Homo sapiens [32]): 71%
inhibition (INH) (Homo sapiens [33]): 90%

C[C@@]1(c2cc(NC(=O)c3ccc(C#N)cn3)ccc2F)C=CSC(N)=N1 [ATABECESTAT]
inhibition (INH) (Homo sapiens [34]): >80%
inhibition (INH) (Homo sapiens [35]): >80%
inhibition (INH) (Homo sapiens [36]): >80%

Cc1cc(C#N)cnc1C(=O)Nc1ccc(F)c([C@@]2(C)N=C(N)C(C)(C)[S@@]3(=O)=NCC[C@@H]23)n1
inhibition in vivo at 30 mg/kg (Mus musculus): 60%

CN1C(N)=N[C@](C)(c2cc(NC(=O)c3ccc(F)cn3)ccc2F)CS1(=O)=O [VERUBECESTAT]
inhibition (INH) (Homo sapiens [37]): 57%
inhibition (INH) (Homo sapiens [38]): 84%
inhibition (INH) (Homo sapiens [39]): 79%
